Results from ChEMBL document CHEMBL3804813, “Discovery and optimization of new benzofuran derivatives against p53-independent malignant cancer cells through inhibition of HIF-1 pathway” (Bioorg Med Chem Lett, 2016).
Active and inactive are the calls of the source. No cut-off for these calls is given here.

How the values were obtained:
[1] = Antiproliferative activity against human HCT116 cells expressing wild type p53 assessed as growth inhibition after 72 hrs by MTT assay; type: functional, cell-based; conditions: HCT-116, 72 h
[2] = Antiproliferative activity against human p53-null HCT116 cells assessed as growth inhibition after 72 hrs by MTT assay; type: functional, cell-based; conditions: HCT-116, 72 h
MCF7 = assay: Antiproliferative activity against human MCF7 cells assessed as growth inhibition after 72 hrs by MTT assay; type: functional, cell-based; conditions: MCF7, 72 h
[3] = Antiproliferative activity against human MDA-MB-435S cells assessed as growth inhibition after 72 hrs by MTT assay; type: functional, cell-based
[4] = biological target: Hypoxia-inducible factor 1-alpha (Homo sapiens) (UniProt Q16665); assay: Inhibition of HIF-1 (unknown origin) expressed in human MCF7 cells co-transfected with hypoxia reporter plasmid p(HRE)3-Luc at 20 uM measured under hypoxia condition after 24 hrs by dual-luciferase reporter assay; type: cell-based
[5] = Decrease in procaspase-9 expression level in human p53-null HCT116 -/- cells at 10 uM after 24 hrs by western blot analysis; type: functional, cell-based; conditions: HCT-116
[6] = Decrease in procaspase-3 expression level in human p53-null HCT116 -/- cells at 10 uM after 24 hrs by western blot analysis; type: functional, cell-based; conditions: HCT-116

Hypoxia-inducible factor 1-alpha (Homo sapiens), sequence (Q16665 whole entry, looked up): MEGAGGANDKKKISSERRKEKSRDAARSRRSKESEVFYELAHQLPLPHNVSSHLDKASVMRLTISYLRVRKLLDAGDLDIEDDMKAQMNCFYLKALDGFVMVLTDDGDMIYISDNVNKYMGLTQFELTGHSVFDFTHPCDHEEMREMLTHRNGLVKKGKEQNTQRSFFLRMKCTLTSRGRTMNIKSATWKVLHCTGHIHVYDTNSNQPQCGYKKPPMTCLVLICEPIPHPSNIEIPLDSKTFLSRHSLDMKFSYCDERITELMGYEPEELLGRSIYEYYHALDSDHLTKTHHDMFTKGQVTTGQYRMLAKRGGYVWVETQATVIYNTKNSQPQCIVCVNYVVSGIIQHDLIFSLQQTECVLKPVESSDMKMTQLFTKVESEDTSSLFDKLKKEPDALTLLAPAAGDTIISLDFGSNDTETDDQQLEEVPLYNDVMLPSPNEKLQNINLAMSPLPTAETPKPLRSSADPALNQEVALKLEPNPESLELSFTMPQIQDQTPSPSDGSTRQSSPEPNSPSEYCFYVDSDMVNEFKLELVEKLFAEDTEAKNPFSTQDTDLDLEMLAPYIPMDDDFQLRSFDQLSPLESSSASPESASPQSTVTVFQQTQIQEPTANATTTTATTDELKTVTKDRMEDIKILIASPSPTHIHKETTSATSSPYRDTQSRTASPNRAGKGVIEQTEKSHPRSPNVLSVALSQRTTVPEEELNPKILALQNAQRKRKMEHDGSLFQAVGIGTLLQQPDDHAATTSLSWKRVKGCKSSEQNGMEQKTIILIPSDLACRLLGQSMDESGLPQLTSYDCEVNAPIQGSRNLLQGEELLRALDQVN

| IC50 (MCF7) | inhibition [4] | Compound | IC50 [1] | IC50 [2] | IC50 [3] | inhibition [5] | inhibition [6] |
| --- | --- | --- | --- | --- | --- | --- | --- |
| – | – | Cc1c(C(=O)O)oc2ccc(N(Cc3ccc(Br)cc3)S(=O)(=O)c3ccc(Br)cc3)cc12 | 8.58 µM | > 40 µM | – | – | – |
| – | – | CCOC(=O)c1oc2ccc(N(Cc3ccccc3)S(=O)(=O)c3ccc([N+](=O)[O-])cc3)cc2c1C | > 40 µM | > 40 µM | – | – | – |
| – | – | CCOC(=O)c1oc2ccc(N(Cc3ccccc3)S(=O)(=O)c3ccc(Br)cc3)cc2c1C | 9.46 µM | 8.7 µM | – | – | – |
| 6.72 µM | < 10% | Cc1c(C(=O)NCCN(C)C)oc2ccc(N(Cc3ccccc3)S(=O)(=O)c3ccc(Cl)cc3)cc12 | 7.06 µM | 6.31 µM | 9.24 µM | – | – |
| – | – | CCOC(=O)c1oc2ccc(N(Cc3ccccc3)S(=O)(=O)c3ccc(F)cc3)cc2c1C | 5.82 µM | 33.1 µM | – | – | – |
| > 40 µM | 27% | Cc1c(C(=O)NCCCn2ccnc2)oc2ccc(N(Cc3ccc(Cl)cc3)S(=O)(=O)c3ccc(Cl)cc3)cc12 | 2.43 µM | 1.89 µM | 7.25 µM | – | – |
| – | – | CCOC(=O)c1oc2ccc(N(Cc3ccccc3)S(=O)(=O)c3cccc(Cl)c3)cc2c1C | > 40 µM | > 40 µM | – | – | – |
| – | – | CCOC(=O)c1oc2ccc(NS(=O)(=O)c3ccc(Cl)cc3)cc2c1C | 24.3 µM | > 40 µM | – | – | – |
| – | – | CCOC(=O)c1oc2ccc(NS(=O)(=O)c3ccc(C(F)(F)F)cc3)cc2c1C | 5.03 µM | 24.2 µM | – | – | – |
| – | – | CCOC(=O)c1oc2ccc(N(C(C)C)S(=O)(=O)c3ccc(Cl)cc3)cc2c1C | 7.83 µM | > 40 µM | – | – | – |
| – | – | CCOC(=O)c1oc2ccc(N(Cc3ccccc3)S(=O)(=O)c3ccc(C(F)(F)F)cc3)cc2c1C | 26.7 µM | 12.7 µM | – | – | – |
| – | – | CCOC(=O)c1oc2ccc(NS(=O)(=O)c3ccc(Br)cc3)cc2c1C | 9.31 µM | > 40 µM | – | – | – |
| – | – | CCOC(=O)c1oc2ccc(N(Cc3ccccc3)S(=O)(=O)c3cccc(Br)c3)cc2c1C | > 40 µM | > 40 µM | – | – | – |
| – | – | CCOC(=O)c1oc2ccc(N(Cc3ccc(Br)cc3)S(=O)(=O)c3ccc(Br)cc3)cc2c1C | 10.9 µM | 5.22 µM | – | – | – |
| – | – | CCOC(=O)c1oc2ccc(N(Cc3ccccc3)S(=O)(=O)c3ccccc3Br)cc2c1C | > 40 µM | > 40 µM | – | – | – |
| – | – | CCOC(=O)c1oc2ccc(NS(=O)(=O)c3ccc(F)cc3)cc2c1C | 10.5 µM | > 40 µM | – | – | – |

| IC50 (MCF7) | inhibition [4] | Compound | IC50 [1] | IC50 [2] | IC50 [3] | inhibition [5] | inhibition [6] |
| --- | --- | --- | --- | --- | --- | --- | --- |
| 5.01 µM | < 10% | COc1ccc(C2=N[C@@H](c3ccc(Cl)cc3)[C@@H](c3ccc(Cl)cc3)N2C(=O)N2CCNC(=O)C2)c(OC(C)C)c1 [NUTLIN-3] | 5.21 µM | 21.5 µM | 29.6 µM | inactive | inactive |
| – | – | Cc1c(C(=O)O)oc2ccc(N(Cc3ccccc3)S(=O)(=O)c3ccc(Br)cc3)cc12 | 7.09 µM | 20 µM | – | – | – |
| – | – | Cc1c(C(=O)O)oc2ccc(N(Cc3ccc(Cl)cc3)S(=O)(=O)c3ccc(Cl)cc3)cc12 | 3.67 µM | 27.2 µM | – | – | – |
| – | – | CCOC(=O)c1oc2ccc(N(Cc3ccccc3)S(=O)(=O)c3ccc(OC)cc3)cc2c1C | > 40 µM | > 40 µM | – | – | – |
| – | – | Cc1c(C(=O)O)oc2ccc(N(Cc3ccccc3)S(=O)(=O)c3ccc(C(F)(F)F)cc3)cc12 | 4.13 µM | 21.1 µM | – | – | – |
| – | – | CCOC(=O)c1oc2ccc(N(CC3CCCCC3)S(=O)(=O)c3ccc(Cl)cc3)cc2c1C | 14.1 µM | > 40 µM | – | – | – |
| – | – | COc1ccc(N(Cc2ccccc2)S(=O)(=O)c2ccc(Cl)cc2)cc1 | 18.3 µM | > 40 µM | – | – | – |
| – | – | CCOC(=O)c1oc2ccc(N(Cc3ccccc3)S(=O)(=O)c3ccc(C)cc3)cc2c1C | > 40 µM | > 40 µM | – | – | – |
| – | – | Cc1c(C(=O)O)oc2ccc(N(Cc3ccccc3)S(=O)(=O)c3ccc(Cl)cc3)cc12 | 9.13 µM | 33.4 µM | – | – | – |
| 31.8 µM | 32.3% | Cc1c(C(=O)NCCCn2ccnc2)oc2ccc(N(Cc3ccccc3)S(=O)(=O)c3ccc(Cl)cc3)cc12 | 17.1 µM | 5 µM | 5.6 µM | – | – |
| – | – | CCOC(=O)c1oc2ccc(N(Cc3ccc(Cl)cc3)S(=O)(=O)c3ccc(Cl)cc3)cc2c1C | 9.48 µM | 9.64 µM | – | – | – |
| – | – | CCOC(=O)c1oc2ccc(N(Cc3ccccc3)S(=O)(=O)c3ccccc3)cc2c1C | > 40 µM | > 40 µM | – | – | – |
| 5.84 µM | 12.7% | Cc1c(C(=O)NCCN(C)C)oc2ccc(N(Cc3ccc(Cl)cc3)S(=O)(=O)c3ccc(Cl)cc3)cc12 | 5.38 µM | 3.87 µM | 10.8 µM | – | – |
| – | – | CCOC(=O)c1oc2ccc(N(Cc3ccccc3)S(=O)(=O)c3ccc(Cl)cc3)cc2c1C | 4.86 µM | 23.2 µM | – | – | – |
| – | – | Cc1c(C(=O)O)oc2ccc(N(Cc3ccccc3)S(=O)(=O)c3ccc(F)cc3)cc12 | > 40 µM | > 40 µM | – | – | – |
